Results published in EPA's ToxRefDB 2.

Assays:
[1] = test system: rabbit; details: Prenatal developmental toxicity study, other, Oral, Gavage/Intubation, dose end: 19 GD
[2] = test system: rat; details: Combined chronic toxicity/carcinogenicity; sprague dawley; Oral; Feed; dose end: 104 week; group: systemic; systemic / clinical chemistry / alanine aminotransferase (alt/sgpt) / alanine aminotransferase (alt/sgpt) + systemic / clinical chemistry / …
[3] = test system: dog; details: Chronic toxicity, beagle, Oral, Capsule, dose end: 52 week, group: systemic
[4] = test system: dog; details: Subchronic oral toxicity in nonrodent, beagle, Capsule, dose end: 26 week, group: systemic, systemic / in life observation / body weight / body weight gain
[5] = test system: mouse; details: Carcinogenicity, other, Oral, Feed, dose end: 18 month, group: systemic
[6] = test system: rat; details: Subchronic oral toxicity in rodents, other, Feed, dose end: 91 day
[7] = group: developmental, developmental / developmental malformation / bone / hypoplasia + developmental / developmental malformation / trunk / spina bifida
[8] = group: maternal, systemic / in life observation / body weight / body weight gain
[9] = systemic / in life observation / body weight / body weight gain + systemic / in life observation / food consumption / food consumption + …
[10] = systemic / pathology microscopic / lung / adenoma + systemic / pathology microscopic / lung / carcinoma + systemic / in life observation / …
[11] = group: cholinesterase, cholinesterase / cholinesterase / cholinesterase / cholinesterase (che)
[12] = group: systemic, systemic / clinical chemistry / alkaline phosphatase (alp/alk) / alkaline phosphatase (alp/alk) + systemic / in life observation / clinical …

With `CCOC(=O)NCCOc1ccc(Oc2ccccc2)cc1` [Fenoxycarb] the LEL [1, 7] was 300 mg/kg/day, the LOAEL [1, 7] was 300 mg/kg/day and the NEL [1, 7] was 200 mg/kg/day. For the same compound, the NOAEL [1, 7] was 200 mg/kg/day, the LEL [1, 8] was 200 mg/kg/day and the LOAEL [1, 8] was 200 mg/kg/day. For the same compound, the NEL [1, 8] was 100 mg/kg/day, the NOAEL [1, 8] was 100 mg/kg/day and the LEL [2] was 24.7 mg/kg/day. It also gave an LOAEL [2] of 24.7 mg/kg/day, an NEL [2] of 8.1 mg/kg/day and an NOAEL [2] of 8.1 mg/kg/day. The LEL ([3]; systemic / clinical chemistry / phosphorus / phosphorus) was 80 mg/kg/day, the NOAEL ([3]; systemic / in life observation / body weight / body weight gain + systemic / clinical chemistry / phosphorus / phosphorus + systemic / organ…) was 80 mg/kg/day and the LOAEL [3, 9] was 260 mg/kg/day. For the same compound, the NEL [3, 9] was 25 mg/kg/day, the LEL [4] was 500 mg/kg/day and the LOAEL [4] was 500 mg/kg/day. The NEL [4] was 150 mg/kg/day, the NOAEL [4] was 150 mg/kg/day and the LEL ([5]; systemic / pathology gross / spleen / enlarged) was 5.75 mg/kg/day. For the same compound, the NEL ([5]; systemic / pathology gross / spleen / enlarged + systemic / pathology microscopic / liver / carcinoma + systemic / pathology microscopic / …) was 1.1 mg/kg/day, the LOAEL [5, 10] was 51.5 mg/kg/day and the NOAEL [5, 10] was 5.33 mg/kg/day. The LEL [6, 11] was 250 mg/kg/day, the LOAEL [6, 11] was > 800 mg/kg/day and the NEL [6, 11] was 80 mg/kg/day. For the same compound, the NOAEL [6, 11] was ≥ 800 mg/kg/day, the LEL [6, 12] was 80 mg/kg/day and the LOAEL [6, 12] was 80 mg/kg/day. For the same compound, the NEL [6, 12] was < 80 mg/kg/day and the NOAEL [6, 12] was < 80 mg/kg/day.
